Reference: EP1352247B1, “ASSAY METHODS FOR IDENTIFYING COMPOUNDS WHICH MAY PROTECT STRATIFIED SQUAMOUS EPITHELIUM AGAINST DAMAGE BY NOXIOUS SUBSTANCES” (The Administrators of the Tulane Educational Fund, priority 2000, dated 2002)

Experiments:
[1] = target: T1, extracellular domain of human Uvomorulin/E-Cadherin (Homo sapiens, UniProt P12830); experiment: Human E-cadherin EIA kit: competition with Mab binding to the extracellular domain of E-cadherin; details: for % Binding: Mab binding vs vehicle control = 100
T1 construct: the approximately 80 kD extracellular domain of Uvomorulin/E-Cadherin provided in the E-cadherin EIA kit; purchased Zymed Laboratories, San Francisco, CA
T1 sequence (P12830 155-709 limits assumed): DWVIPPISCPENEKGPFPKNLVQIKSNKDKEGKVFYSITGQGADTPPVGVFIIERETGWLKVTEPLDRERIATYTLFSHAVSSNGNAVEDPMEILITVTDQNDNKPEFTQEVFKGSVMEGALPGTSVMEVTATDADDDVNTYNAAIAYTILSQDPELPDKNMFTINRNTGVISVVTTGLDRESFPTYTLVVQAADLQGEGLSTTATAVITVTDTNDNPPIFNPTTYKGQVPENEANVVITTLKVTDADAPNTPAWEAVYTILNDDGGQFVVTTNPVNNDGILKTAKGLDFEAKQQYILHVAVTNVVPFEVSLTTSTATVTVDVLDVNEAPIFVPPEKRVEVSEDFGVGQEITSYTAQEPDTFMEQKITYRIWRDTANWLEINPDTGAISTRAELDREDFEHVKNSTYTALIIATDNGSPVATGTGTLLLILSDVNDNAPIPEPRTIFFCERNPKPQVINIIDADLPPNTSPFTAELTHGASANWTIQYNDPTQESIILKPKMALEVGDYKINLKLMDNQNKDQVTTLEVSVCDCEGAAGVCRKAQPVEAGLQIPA
Text: The kit enables the antigen to be exposed to agents or antibodies prior to exposure to the standard Mab to the extracellular domain of Uvomorulin/E-cadherin. The ability of the agent or antibody to block the binding of the Mab to the extracellular domain of Uvomorulin/E-cadherin can then be used to determine if competition for binding sites on the antigen has occurred. Comparative binding is based on the quantity of binding observed when the Mab to Uvomorulin/E-cadherin is placed in contact with antigen in the absence of prior exposure to test agent or antibody. The experimental control for test agents is vehicle (normal Ringer solution) and for monoclonal or polyclonal antibodies is an equivalent amount of nonspecific immune serum globulin (IgG). The quantity of binding of the Mab to Uvomorulin/E-cadherin to antigen in the absence of test agent or test antibody is labeled as control and whose value is normalized to 100%.
The Human E-cadherin EIA kit (Zymed Laboratories, San Francisco, CA) was used as in the method described in Example 5 to determine binding of test compounds, SITS, SOS, CDDD-1192, CDDD-1193 and 1,3-benzene disulfonic acid (1,3-BDSA) to the approximately 80 kD extracellular domain of Uvomorulin/E-Cadherin provided in the E-cadherin EIA kit. This was done by adding the extracellular domain of human Uvomorulin/E-Cadherin to a solution with varying concentrations of the compounds in the nanomolar to millimolar range or with vehicle (control, normal Ringer solution) for […]. Following incubation for 2 hrs, the solution is added to a solid phase microtiter plate, provided in the EIA kit, to which a mouse monoclonal anti-human Uvomorulin/E-cadherin antibody (Zymed Laboratories, San Francisco, CA) is bound. This permits antigen with epitopes unoccupied by test compound to bind to the plate. After washing the plate with Tris buffer containing 0.1 % Tween-20 (Promega, Madison, Wisconsin) and 5 mM calcium chloride, the second mouse monoclonal anti-human Uvomorulin/E-cadherin antibody labeled with peroxidase is used to tag the bound antigen. After an additional incubation for 1 hr and washing with Tris buffer, the peroxidase is detected with substrate (hydrogen peroxide and tetramethyl-benzidine in buffered solution, as included in the EIA test kit) by incubating for 15 min at room temperature and stopping of the reaction with 1N […]. […] The amount of Uvomorulin/E-cadherin is quantitated by measuring absorbance at 450 nm within an hour following development using an EIA plate reader (Vmax Plate Reader, Molecular Devices, Sunnyvale, CA). The degree of binding of a compound to the extracellular domain of Uvomorulin/E-cadherin is determined by the reduction in antigen detection in the plate exposed to test compound compared to that for the control plate (100%) where no compound was present (Table 2).

[2] = tested on: esophageal epithelium; details: cited from earlier work
[3] = tested on: rabbit esophageal epithelium
Method: Sections of rabbit esophageal epithelium, mounted in Ussing chambers and stabilized for 45 min, were exposed both luminally and serosally to calcium-free solution containing EDTA, 3 mM.
Sections of rabbit esophageal epithelium were mounted in Ussing chambers and exposed luminally to trypsin, 0.01%, in the presence or absence of a calcium-free bathing solution.
Sections of rabbit esophageal epithelium were mounted in Ussing chambers and exposed luminally to either SITS, 4 mM, or vehicle (Ringer) as control for 30 min.

[4] = tested on: rabbit esophageal epithelium; experiment: Junctional resealing (recovery of R after calcium restoration or return to isoosmolality) in Ussing chambers; type: cell-based; details: luminal 4 mM for 30 min and during calcium-free period; after restoration of calcium (0 mM SITS), n=3
Text: When calcium-containing (normal Ringer) solution was restored to the bathing solutions after 1, 2, or 4 hrs of calcium-free exposure, there was a progressive return of R toward initial baseline values, with complete reversibility observed for tissue exposed to calcium-free solution for 1 hr and 2 hr exposures and an 80% recovery in R for tissue exposed to calcium-free for 4 hrs within 1 hr of restoring calcium to the baths.
Sections of rabbit esophageal epithelium prepared as in Example 1 were exposed luminally and serosally to a calcium-free solution containing 3 mM EDTA to open the junctions as shown by the progressive decline in R to 60±4% and 65±4% of initial R for experimental and control tissues, respectively, by 2 hrs (n = 8 for each group, p > 0.05). Tissues were then treated luminally for 20 min with either 10 µg/ml of a monoclonal antibody (Mab) to Uvomorulin/E-cadherin (Sigma Chemical, St. Louis, MO) or, as control, to 10 µg/ml of nonspecific immune serum globulin (IgG). Following exposure to Mab or IgG, a calcium-containing (normal Ringer) solution was restored to the bathing solutions and the recovery of R monitored over time.
The intercellular junctions of stratified squamous epithelium can also be opened by exposure to hypertonic saline. […]

SMILES: O=S(=O)(O)c1cccc(S(=O)(=O)O)c1 [1,3 BDSA, 1,3-benzene disulfonic acid]
- % Binding ([1]; agent 4 mM): 104±3%
- effect against acid injury ([2]; 4 mM, as shown in U.S. Patent No. 5,189,056 and 5,374,537): ineffective against acid injury

SMILES: O=S(=O)(O)OCC(OS(=O)(=O)O)C(Oc1ccccc1)c1ccc(N=C=S)cc1 (centres unmarked) [CDDD-1192, disodium 3-(4-isothiocyanatophenyl)-3 phenoxypropane-1,2-disulfate]
- % Binding ([1]; agent 0.4 uM): 103±6%
- % Binding ([1]; agent 4 mM): 77±13 %

SMILES: O=S(=O)(O)OCC(OS(=O)(=O)O)C(Oc1ccc(N=C=S)cc1)c1ccc(N=C=S)cc1 (centres unmarked) [CDDD-1193, disodium 3-(4-isothiocyanatophenoxy)-3-(4-isothiocyanatophenyl)propane-1,2-disulfate]
- % Binding ([1]; agent 40 nM): 110±6%
- % Binding ([1]; agent 40 uM): 83±3 %
- % Binding ([1]; agent 4 mM): 38±0.75 %

SMILES: O=C(O)CN(CCN(CC(=O)O)CC(=O)O)CC(=O)O [EDTA]
- effect on R ([3]; 3 mM alone, over the described time frame (up to 4 hrs)): no effect on R

SMILES: CC(=O)Nc1ccc(C=Cc2ccc(N=C=S)cc2S(=O)(=O)O)c(S(=O)(=O)O)c1 [SITS, 4-acetamido-4'-isothiocyano-2,2'-stilbene disulfonate]
- % Binding ([1]; agent 40 uM): 77±3 %
- % Binding ([1]; agent 4 mM): 26±3 %
- % Binding ([1]; agent 8 mM): 20±3 %
- recovery of R [4]: 75±3%
- R declined to ([3]; calcium-free solution (3 mM EDTA) with 4 mM SITS, over 2 hr): 68±3%

SMILES: O=S(=O)(O)OC[C@H]1O[C@@](COS(=O)(=O)O)(O[C@H]2O[C@H](COS(=O)(=O)O)[C@@H](OS(=O)(=O)O)[C@H](OS(=O)(=O)O)[C@H]2OS(=O)(=O)O)[C@@H](OS(=O)(=O)O)[C@@H]1OS(=O)(=O)O [SOS, sucrose octasulfate]
- binding to the extracellular domain of Uvomorulin/E-cadherin / inhibition of Mab binding (in words) [1]: dose-dependently binds
- % Binding ([1]; agent 4 mM): 83±0.3 %
- % Binding ([1]; agent 10 mM): 76±0.3 %
- protection against acid-induced injury, reversibility [2]: irreversibly protect
